Test results taken from ChEMBL document CHEMBL6092142, “Discovery and preclinical profile of YK-2168, a differentiated selective CDK9 inhibitor in clinical development” (Bioorg Med Chem Lett, 2024).
pIC50: −log10 of the molar value.

How the values were obtained:
[1] = system: MV4-11; assay: Antiproliferative activity against human MV4-11 cells assessed as cell viability; format: functional, cell-based
[2] = Selectivity index, ratio of IC50 for inhibition of CDK1 (unknown origin) to IC50 for inhibition of CDK9 (unknown origin)
[3] = Selectivity index, ratio of IC50 for inhibition of CDK2 (unknown origin) to IC50 for inhibition of CDK9 (unknown origin)

| pIC50 [1] | Ratio IC50 [2] | Ratio IC50 [3] | SMILES |
| --- | --- | --- | --- |
| 7.20 | 146 | 22.1 | COCCN1CCC(c2cc3c(-c4cnn(CC5CC5)c4)c(Cl)cnc3[nH]2)CC1 |
| 7.45 | 35.9 | 11.2 | CN1CCC(c2cc3c(-c4cnn(CC5CC5)c4)c(Cl)cnc3[nH]2)CC1 |
| 6.33 |  | 35.5 | Clc1cnc2[nH]c(C3CCNCC3)nc2c1-c1cnn(CC2CC2)c1 |
